Laboratory results taken from PMC9782315, “Site-Specific Albumin-Selective Ligation to Human Serum Albumin under Physiological Conditions” (Bioconjugate Chemistry, 2022).
Like-named read-outs stand apart in the source and are kept apart here. Where a SMILES comes first, the peptide text is derived from it. [ ]: non-standard residue; d: D form. The star is where a group is joined. Biotin = O=C1N[C@H]2[C@H](CS[C@H]2CCCCC(=O)*)N1; Myristoyl = CCCCCCCCCCCCCC(=O)*; Aad = N[C@@H](CCCC(=O)O)C(=O)O; AEEA = NCCOCCOCC(=O)O

What was measured:
HSA [1] = biological target: T1, HSA (Homo sapiens, UniProt P02768); assay: Neutravidin pull-down assay for conjugation yield of biotinylated HSA; format: biochemical
T1 construct: purchased Sigma Aldrich
T1 sequence (P02768 25-609): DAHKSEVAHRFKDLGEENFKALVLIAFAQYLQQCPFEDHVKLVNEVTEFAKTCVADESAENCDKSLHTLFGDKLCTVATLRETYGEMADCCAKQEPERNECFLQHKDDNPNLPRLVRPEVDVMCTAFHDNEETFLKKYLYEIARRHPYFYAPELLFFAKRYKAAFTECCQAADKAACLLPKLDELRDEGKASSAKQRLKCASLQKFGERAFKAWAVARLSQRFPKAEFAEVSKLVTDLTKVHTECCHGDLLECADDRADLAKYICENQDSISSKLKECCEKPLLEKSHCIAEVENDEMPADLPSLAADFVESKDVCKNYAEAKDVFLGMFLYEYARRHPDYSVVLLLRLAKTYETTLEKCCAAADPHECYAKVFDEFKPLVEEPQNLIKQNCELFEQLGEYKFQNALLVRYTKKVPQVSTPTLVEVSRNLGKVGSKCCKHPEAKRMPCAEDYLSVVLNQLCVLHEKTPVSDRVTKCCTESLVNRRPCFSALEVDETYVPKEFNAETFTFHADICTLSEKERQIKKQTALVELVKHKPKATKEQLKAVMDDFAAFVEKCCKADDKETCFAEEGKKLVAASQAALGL
Protocol: Zeba spin desalting columns were pre-equilibrated by PBS buffer 3 times on
centrifugation (1500 x g, 1 minute). After conjugation, HSA-LYL conjugates passed
through the equilibrated Zeba desalting column. The flow through was collected and
further condensed by a 500 μL ultracentrifugation tube (MW cutoff = 3000) at 1 5000
rpm at 4 °C for 15 minutes. The resulting condensed solution was immediately
reconstituted by PBS (pH = 7.2), and the condensation process was repeated 2 times to
further remove biotinylated peptidomimetics. After that, the condensed HSA conjugate
(typically 20-50 μL) was diluted by 100 μL PBS for Neutravidin pull-down assay.
Using neutravidin-immobilized agarose, the NeutrAvidin pull-down assay intercepted
biotinylated proteins through biotin-avidin interaction. Therefore, the conjugation yield
can be determined by measuring the difference caused by NeutrAvidin pull -down.
The yield of conjugation is calculated based on the concentration difference of HSA
before and after passing through Neutrvidin agarose, which is calculated by following
𝑌𝑖𝑒𝑙𝑑 = 𝐶𝐻𝑆𝐴 𝑆𝑡𝑜𝑐𝑘−𝐶𝐻𝑆𝐴 𝐹𝑙𝑜𝑤−𝑡ℎ𝑟𝑜𝑢𝑔ℎ × 100% (1) […]
concentration was determined by Bicinchoninic acid (BCA) assay. […]
coulometric reactions were performed at 68°C for 30 minutes and the UV absorbance at
562 nm was measured by plate reader. […]
fluorescence intensity of corresponding Western blots.
was calculated without background subtraction .

HSA [2] = biological target: T1, HSA; assay: Bio-layer interferometry (BLI) assay of non-covalent biotinylated RAEs with HSA; format: binding; conditions: human serum albumin (HSA)
Protocol: S5. BLI Assay for Biotinylated Non-covalent Peptidomimetics.
Figure S6 Chemical Structure of Non-covalent Biotinylated RAEs (NCB-LYL1-4, NCB-LYLG) Biotinylated Non-covalent RAEs was synthesized by replacing acrylamide with acetyl group to study the intrinsic binding affinity of peptidomimetics using bio-layer interferometry (BLI) assay. For BLI assay, 1 μM non-covalent biotinylated RAEs (Figure S6) solution was prepared by kinetic buffer as the bait. As the fish, HSA solution at various concentration prepared by serial dilution using kinetic buffer, and the last well of dilution was filled with kinetic buffer as the reference well. Using 96-well plate, the biosensors were equilibrated in kinetic buffer for 60s. Then biosensors dipped ligands […]
wells, kinetic buffer wells, HSA well, kinetic buffer wells again for 120s, 60s, 480s, 960s as loading, baseline, association, and dissociation step, respectively. The data was subtracted by reference wells and processed by ForteBio Data Analysis software to derive the Kd value using steady-state approximation by 1:1 model (Figure S7-S8)
Figure S7 Bio-layered Interferometry for NCB-LYL1-4 and NCB -LYL -G
(1 picture or pasted object on this page, not shown here)

[3] = BLI, 1 μM non-covalent biotinylated RAE as bait, HSA serial dilution in kinetic buffer, association 480 s, dissociation 960 s, steady-state, 1:1 model, read-out: Kd

| Kd at 480 s (HSA [2]; [3]) [nM] | SMILES | further results |
| --- | --- | --- |
| – | O=C1N[C@H]2[C@H](CS[C@H]2CCCCC(=O)Oc2ccc([N+](=O)[O-])cc2)N1 [NBE, 4-Nitrophenyl biotin ester] | Conjugation Yield (HSA [1]; 10 μM HSA, 50 μM RAE or NBE, PBS pH 7.2, room temperature, 1 h, BCA read-out, 3 replications, no background subtraction): 99.0%; uptake by immobilized neutravidin agarose (conjugation yield, text) (HSA [1]; initial condition, physiological pH 7.2, 1 h): ~100% |
| 1400 | CCCCCCCCCCCCCC(=O)N[C@H](CCC(=O)O)C(=O)N[C@@H](CC(=O)O)C(=O)N[C@@H](CCCCNC(C)=O)C(=O)N[C@H](CO)C(=O)N[C@@H](CCCC(=O)O)C(=O)NCCOCCOCC(=O)NCCOCCOCC(=O)N[C@@H](CCCCNC(=O)CCCC[C@@H]1SC[C@@H]2NC(=O)N[C@@H]21)C(N)=O [NCB-LYL1] (Myristoyl-[dE]DK(Ac)[dS][Aad][AEEA][AEEA]K(Biotin)-NH2) | – |
| 1000 | CCCCCCCCCCCCCC(=O)N[C@H](CCC(=O)O)C(=O)N[C@@H](CCCC(=O)O)C(=O)N[C@@H](CCCCNC(C)=O)C(=O)N[C@@H](CC(=O)O)C(=O)N[C@@H](Cc1ccc(O)cc1)C(=O)NCCOCCOCC(=O)NCCOCCOCC(=O)N[C@@H](CCCCNC(=O)CCCC[C@@H]1SC[C@@H]2NC(=O)N[C@@H]21)C(N)=O [NCB-LYL2] (Myristoyl-[dE][Aad]K(Ac)DY[AEEA][AEEA]K(Biotin)-NH2) | – |
| 2400 | CCCCCCCCCCCCCC(=O)N[C@H](CCC(=O)O)C(=O)N[C@@H](CCCCNC(C)=O)C(=O)N[C@@H](CCCC(=O)O)C(=O)N[C@H](CCC(=O)O)C(=O)NCCOCCOCC(=O)NCCOCCOCC(=O)N[C@@H](CCCCNC(=O)CCCC[C@@H]1SC[C@@H]2NC(=O)N[C@@H]21)C(N)=O [NCB-LYL3] (Myristoyl-[dE]K(Ac)[Aad][dE][AEEA][AEEA]K(Biotin)-NH2) | – |
| 2800 | CCCCCCCCCCCCCC(=O)N[C@H](C)C(=O)N[C@@H](CCCC(=O)O)C(=O)N[C@@H](CCCCNC(C)=O)C(=O)N[C@H](CCC(=O)O)C(=O)N[C@H](CO)C(=O)NCCOCCOCC(=O)NCCOCCOCC(=O)N[C@@H](CCCCNC(=O)CCCC[C@@H]1SC[C@@H]2NC(=O)N[C@@H]21)C(N)=O [NCB-LYL4] (Myristoyl-[dA][Aad]K(Ac)[dE][dS][AEEA][AEEA]K(Biotin)-NH2) | – |
| – | CCCCCCCCCCCCCC(=O)NCC(=O)NCC(=O)N[C@@H](CCCCNC(C)=O)C(=O)NCC(=O)NCC(=O)NCCOCCOCC(=O)NCCOCCOCC(=O)N[C@@H](CCCCNC(=O)CCCC[C@@H]1SC[C@@H]2NC(=O)N[C@@H]21)C(N)=O [NCB-LYLG] (Myristoyl-GGK(Ac)GG[AEEA][AEEA]K(Biotin)-NH2) | Kd at 480 s (HSA [2]; BLI assay, non-covalent (acetyl instead of acrylamide) biotinylated RAEs, read-out: Kd / binding affinity toward HSA): 12000 nM |
